# pKi: −log10 of the molar value. Structures can show the parent of a compound that is named as a salt.
# Experiments:
# neurokinin NK1 receptor = molecular target: T1, neurokinin NK1 receptor (Cavia porcellus, UniProt P30547); test: Effect of suppressing substance P-induced airway contraction (in vivo, intratracheal administration); parameters: species or system guinea pig; settings: guinea pigs, intratracheal administration 60 minutes before 20 μg/kg i.v. SP, AUC of increase in airway pressure over 10 minutes
# T1 construct: Using healthy guinea pigs (body weight, 350 to 550 g; Hartley male guinea pigs); from tissue; host or cells: live anaesthetised Hartley male guinea pigs (airway, in vivo)
# Method: (§1) Using healthy guinea pigs (body weight, 350 to 550 g; Hartley male guinea pigs), the effect of suppressing airway contraction induced by substance P (SP), which is an NK1 receptor agonist, was examined by a modified method of Konzett-Roessler (Naunyn-Schmiedebergs Arch. Exp. Pathol. Pharmakol. 195, 71 [1940]) using airway pressure as an indicator.
# (§2) A tracheal cannula and a venous cannula were attached to a guinea pig anesthetized with pentobarbital (50 mg/mL solution, 0.40 to 0.50 mL/body, subcutaneous administration). An arterial cannula filled with heparin-containing physiological saline (100 U/mL) was further attached, and blood pressure and heart rate were monitored via an amplifier and an instantaneous heart rate meter. Subsequently, gallamine (20 mg/body, intravenous administration) was administered to terminate spontaneous breathing, and then 10 mL/kg of positive pressure breathing (Ugo-Basile Biological Research Apparatus, Cat. No. 7025) was rapidly performed at 60 times/min. The airway pressure during artificial breathing was detected with a pressure transducer (TP-200T or TP-400T; Nihon Kohden Corporation) attached to a side branch of the tracheal cannula, amplified (AP-601G; Nihon Kohden Corporation), and recorded in a recorder. After the airway pressure, blood pressure, and heart rate were stabilized, 20 μg/kg of SP was intravenously administered from the venous cannula to induce airway contraction, and the airway pressure was measured for the following 10 minutes.
# The test substance was dissolved in a 5% glucose solution, a 0.5 mL/kg solution was intratracheally administered with an intratracheal administration apparatus (model 1A-1B; Penn-Century, Inc.) 60 minutes before stimulation with SP.
# (§3) The AUC of increase in the airway pressure over 10 minutes after administration of SP was determined as the intensity of SP-induced airway contraction and calculated as an ID50 value from the inhibition rate based on the value of the control group (5% glucose solution intratracheal administration group).
# neurokinin NK2 receptor = molecular target: T2, neurokinin NK2 receptor (Cavia porcellus, UniProt Q64077); test: Effect of suppressing neurokinin A-induced airway contraction (in vivo, intratracheal administration); parameters: species or system guinea pig; settings: guinea pigs, intratracheal administration 60 minutes before 4 μg/kg i.v. NKA; AUC of increase in airway pressure over 10 minutes
# T2 construct: Using healthy guinea pigs (body weight, 350 to 550 g; Hartley male guinea pigs); from tissue; host or cells: live anaesthetised Hartley male guinea pigs (airway, in vivo)
# T2 sequence (Q64077 1-402): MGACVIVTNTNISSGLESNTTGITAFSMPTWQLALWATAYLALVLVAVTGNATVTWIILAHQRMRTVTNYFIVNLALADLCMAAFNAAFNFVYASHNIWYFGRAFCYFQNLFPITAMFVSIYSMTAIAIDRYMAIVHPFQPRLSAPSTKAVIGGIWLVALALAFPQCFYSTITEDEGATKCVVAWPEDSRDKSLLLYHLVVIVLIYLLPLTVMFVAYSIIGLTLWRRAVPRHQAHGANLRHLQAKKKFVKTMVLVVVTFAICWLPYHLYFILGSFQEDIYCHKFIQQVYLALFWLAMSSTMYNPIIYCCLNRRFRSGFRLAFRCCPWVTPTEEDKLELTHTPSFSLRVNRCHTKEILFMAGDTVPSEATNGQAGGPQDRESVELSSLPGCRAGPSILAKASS
# Method: as §1, with “neurokinin A (NKA),” for “substance P (SP),”, “NK2” for “NK1”
# as §2, with “and” for “and then”, “stabilized, 4” for “stabilized, 20”, “of NKA” for “of SP”
# The test substance was dissolved in a 5% glucose solution, and a 0.5 mL/kg solution was intratracheally administered with an intratracheal administration apparatus (model 1A-1B; Penn-Century, Inc.) 60 minutes before stimulation with NKA.
# as §3, with “NKA” for “SP”, “NKA-induced” for “SP-induced”
# muscarine M3 receptor = test: Effect of suppressing methacholine-induced airway contraction (in vivo, intratracheal administration); parameters: species or system guinea pig; settings: guinea pigs, intratracheal administration 60 minutes before 30 μg/kg i.v. methacholine; AUC of increase in airway pressure over 10 minutes
# Method: as §1, with “methacholine,” for “substance P (SP),”, “a muscarine” for “an NK1”
# as §2, with “mg/mL of” for “mg/mL”, “stabilized, 30” for “stabilized, 20”, “of methacholine” for “of SP”
# A test substance was dissolved in 5% glucose solution, and a 0.5 mL/kg solution was administered intratracheally with an intratracheal administration apparatus (model 1A-1B; Penn-Century, Inc.) 60 minutes before stimulation with methacholine.
# as §3, with “methacholine” for “SP”, “measured” for “determined”, “methacholine-induced” for “SP-induced”, “(a 5%” for “(5%”
# human NK2 receptor = molecular target: T3, human NK2 receptor (Homo sapiens, UniProt P21452); test: Test for binding to human NK2 receptor
# T3 construct: expressed in transfected cells; host or cells: COS cells
# T3 sequence (P21452 1-398): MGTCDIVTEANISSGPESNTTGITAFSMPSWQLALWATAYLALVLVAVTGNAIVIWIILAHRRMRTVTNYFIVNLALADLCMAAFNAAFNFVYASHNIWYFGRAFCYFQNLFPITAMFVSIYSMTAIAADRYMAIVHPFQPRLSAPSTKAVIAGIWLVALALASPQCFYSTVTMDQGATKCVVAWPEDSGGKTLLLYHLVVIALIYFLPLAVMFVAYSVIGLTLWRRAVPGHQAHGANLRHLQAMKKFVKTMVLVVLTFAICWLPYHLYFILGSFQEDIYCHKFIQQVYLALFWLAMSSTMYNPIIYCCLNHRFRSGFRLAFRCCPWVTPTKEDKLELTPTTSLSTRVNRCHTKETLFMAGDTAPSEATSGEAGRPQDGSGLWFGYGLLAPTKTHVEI
# Method: A solution of cryopreserved COS cells expressing human NK2 receptor was diluted with a buffer (50 mM tris-hydrochloride containing 0.04% of bovine serum albumin [BSA], pH 7.4) to obtain a concentration of 5.0×10^5 cells/mL and used as a crude membrane sample.
# [^3H]SR 48968 (GE Healthcare Japan Corporation) was diluted with a mixture of 50 mM of tris-hydrochloride (pH 7.4), 6 mM of manganese chloride tetrahydrate, 800 μg/mL of BSA, 8 μg/mL of chymostatin, 8 μg/mL of leupeptin, 80 μg/mL of bacitracin, and 20 μg/mL of phosphoramidon. […] After the reaction, the membrane components were collected on a GF/B glass fiber filter paper (Whatman; Biomedical Research and Development Laboratories, Inc.) with an automated filtration system (Brandel; Biomedical Research and Development Laboratories, Inc.). The glass fiber filter paper was pretreated with a 0.1% polyethylenimine solution for 4 hours or longer to minimize non-specific binding. The filter collecting the membrane components was transferred to a small-size plastic vial containing 3 mL of Pico-Fluor, and the radioactivity was measured with a liquid scintillation counter (Tri-Carb 2900TR or 2300TR; Perkin Elmer).
# The effect of binding to the NK2 receptor was calculated as the affinity (Ki) of the test substance for the NK2 receptor from a 50% binding dose (IC50) and the affinity (Kd) of [^3H]SR 48968 for the NK2 receptor.
# substance P receptor = molecular target: T4, substance P receptor (Cavia porcellus, UniProt P30547); test: Test for binding to guinea-pig substance P receptor (crude lung membrane sample); settings: crude guinea-pig lung membrane sample, [3H]substance P; Ki from IC50 and Kd; read-out: Ki
# T4 construct: A preparation of a crude lung membrane sample was prepared; from tissue; host or cells: guinea-pig lung (crude membrane sample)
# Method: A preparation of a crude lung membrane sample was prepared, and a test for binding of a test substance to the sample was performed according to the method described in EP0336230A2.
# The binding effect of the test substance to a substance P receptor was calculated as an affinity (Ki) of the test substance for the substance P receptor from a 50% binding concentration (IC50) and an affinity (Kd) of [^3H]substance P for the substance P receptor.
# human M3 receptor = molecular target: T5, human M3 receptor (Homo sapiens, UniProt P20309); test: Test for binding to human M3 receptor
# T5 construct: expressed in transfected cells; host or cells: CHO cells
# Method: A solution of cryopreserved CHO cells expressing human M3 receptor was diluted with a buffer (50 mM tris-hydrochloride containing 0.5 mM of EDTA, pH 7.4) to obtain 5.0×10^5 of cells/mL and used as a crude membrane sample.
# [N-methyl-^3H]-(−)-Scopolamine methyl chloride (GE Healthcare Japan Corporation) was diluted with 50 mM of tris-hydrochloride containing 0.5 mM of EDTA (pH 7.4), a test substance and 250 μL of the crude membrane sample solution were added to 250 μL of the mixture, and the mixture was incubated at room temperature for 60 minutes. […] The glass fiber filter paper was pretreated with a 0.1% polyethylenimine solution for 4 hours or longer to minimize non-specific binding. The filter collecting membrane components was transferred to a small-size plastic vial containing 3 mL of Pico-Fluor, and the radioactivity was measured with a liquid scintillation counter (Tri-Carb 2900TR or 2300TR; Perkin Elmer).
# The effect of binding to the M3 receptor was calculated as the affinity (Ki) of the test substance for the M3 receptor from a 50% binding dose (IC50) and the affinity (Kd) of [N-methyl-^3H]-(−)-Scopolamine methyl chloride for the M3 receptor.
# T4 sequence (P30547 whole entry): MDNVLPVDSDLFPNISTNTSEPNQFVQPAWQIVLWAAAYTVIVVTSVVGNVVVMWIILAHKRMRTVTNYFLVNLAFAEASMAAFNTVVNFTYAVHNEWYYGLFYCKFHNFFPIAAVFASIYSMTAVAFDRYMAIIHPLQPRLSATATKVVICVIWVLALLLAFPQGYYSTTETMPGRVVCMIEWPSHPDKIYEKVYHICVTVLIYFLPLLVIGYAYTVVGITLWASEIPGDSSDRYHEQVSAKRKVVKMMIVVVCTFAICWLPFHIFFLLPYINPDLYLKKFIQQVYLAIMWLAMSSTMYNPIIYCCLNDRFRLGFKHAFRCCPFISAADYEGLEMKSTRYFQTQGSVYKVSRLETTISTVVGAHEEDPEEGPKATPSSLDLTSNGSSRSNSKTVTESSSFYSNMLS
# T1 sequence (P30547 whole entry): as above
# T5 sequence (P20309 whole entry): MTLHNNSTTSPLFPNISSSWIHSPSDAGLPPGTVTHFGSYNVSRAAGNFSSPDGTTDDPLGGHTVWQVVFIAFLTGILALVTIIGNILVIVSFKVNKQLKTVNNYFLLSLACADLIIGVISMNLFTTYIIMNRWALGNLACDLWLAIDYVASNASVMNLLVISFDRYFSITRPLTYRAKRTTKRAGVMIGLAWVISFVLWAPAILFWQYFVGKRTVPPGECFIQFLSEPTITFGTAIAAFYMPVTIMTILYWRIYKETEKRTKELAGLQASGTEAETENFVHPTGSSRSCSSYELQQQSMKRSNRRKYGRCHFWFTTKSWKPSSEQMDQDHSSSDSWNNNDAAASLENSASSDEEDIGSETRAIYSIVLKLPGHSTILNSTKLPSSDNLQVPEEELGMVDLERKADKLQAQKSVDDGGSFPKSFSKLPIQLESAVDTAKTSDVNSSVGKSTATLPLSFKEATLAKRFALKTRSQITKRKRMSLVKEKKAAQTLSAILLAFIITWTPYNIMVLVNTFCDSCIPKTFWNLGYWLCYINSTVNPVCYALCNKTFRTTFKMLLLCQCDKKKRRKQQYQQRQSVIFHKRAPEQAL
SMILES,ID50 (neurokinin NK1 receptor) [mg/kg],ID50 (neurokinin NK2 receptor) [mg/kg],ID50 (muscarine M3 receptor) [mg/kg],"ED50 (neurokinin NK1 receptor; guinea pig, read-out: ID50 (the source's name)) [mg/kg]",pKi (human NK2 receptor),pKi (substance P receptor),pKi (human M3 receptor)
CN(CCN1CCC(OC(=O)Nc2ccccc2-c2ccccc2)CC1)C(=O)CCCCCCNc1ccc(C(=O)N(C)CCCN(C)C(=O)CO[C@H]2Cc3ccccc3C23CCN(CC[C@@]2(c4ccc(F)cc4)CN(C(=O)c4cc(C(F)(F)F)cc(C(F)(F)F)c4)CO2)CC3)cc1.Cl.Cl.Cl [Example 39],0.0388,0.0336,0.0559,–,–,–,–
"CN(CCN1CCC(OC(=O)Nc2ccccc2-c2ccccc2)CC1)C(=O)CCCCCNc1ccc(C(=O)N(C)CCCN(C)C(=O)CO[C@H]2Cc3ccccc3C23CCN(CC[C@@]2(c4ccc(F)cc4)CN(C(=O)c4cc(C(F)(F)F)cc(C(F)(F)F)c4)CO2)CC3)c(Cl)c1 [Example 85, 1-(2-{[6-({4-[{3-[({[(2S)-1′-{2-[(5R)-3-[3,5-Bis(trifluoromethyl)benzoyl]-5-(4-fluorophenyl)-1,3-oxazolidin-5-yl]ethyl}-2,3-dihydrospiro[indene-1,4′-piperidin]-2-yl]oxy}acetyl)(methyl)amino]propyl}(methyl)carbamoyl]-3-chlorophenyl}amino)hexanoyl](methyl)amino}ethyl)piperidin-4-yl biphenyl-2-ylcarbamate trihydrochloride]",–,–,0.0327,0.0373,9.00,8.66,8.72
"CN(CCN1CCC(OC(=O)Nc2ccccc2-c2ccccc2)CC1)C(=O)CCCCCNc1nc(CC(=O)N(C)CCCN(C)C(=O)CO[C@H]2Cc3ccccc3C23CCN(CC[C@@]2(c4ccc(F)cc4)CN(C(=O)c4cc(C(F)(F)F)cc(C(F)(F)F)c4)CO2)CC3)cs1 [Example 88, 1-{2-[{6-[(4-{2-[{3-[({[(2S)-1′-{2-[(5R)-3-[3,5-Bis(trifluoromethyl)benzoyl]-5-(4-fluorophenyl)-1,3-oxazolidin-5-yl]ethyl}-2,3-dihydrospiro[indene-1,4′-piperidin]-2-yl]oxy}acetyl)(methyl)amino]propyl}(methyl)amino]-2-oxoethyl}-1,3-thiazol-2-yl)amino]hexanoyl}(methyl)amino]ethyl}piperidin-4-yl biphenyl-2-ylcarbamate trihydrochloride]",–,–,0.006,–,9.14,8.96,9.51

# — US8476253B2, “Amide derivative” (Daiichi Sankyo Company, Limited, priority 2009, dated 2013)
